Results: PubChem BioAssay (NCI)
Values joined by “and” are separate entries in the source; they are usually repeats but may differ in a detail not shown here. Equal entries are not always repeated.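 Cultured in 96-well plates, cells were exposed to test compound for 48 hours across five concentrations. GI50 = concentration required for 50% inhibition of growth. Definition used: TGI = concentration required for complete inhibition of growth.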

Legend:
Assay in all cases: NCI tumour cell line growth inhibition, 48 h
NCI-H23 lung = system: NCI-H23 lung
SNB-19 CNS = system: SNB-19 CNS
SR leukemia = system: SR leukemia
SN12C renal = system: SN12C renal
HOP-62 NSCLC = system: HOP-62 NSCLC
SW-620 colon = system: SW-620 colon
SF-539 CNS = system: SF-539 CNS
KM12 colon = system: KM12 colon
BT-549 breast = system: BT-549 breast
ACHN renal = system: ACHN renal

Compound | GI50 (NCI-H23 lung) [µM] | TGI (NCI-H23 lung) [µM] | GI50 (SNB-19 CNS) [µM] | TGI (SNB-19 CNS) [µM] | GI50 (SR leukemia) [µM] | TGI (SR leukemia) [µM] | GI50 (SN12C renal) [µM] | TGI (SN12C renal) [µM] | GI50 (HOP-62 NSCLC) [µM] | TGI (HOP-62 NSCLC) [µM] | GI50 (SW-620 colon) [µM] | TGI (SW-620 colon) [µM] | GI50 (SF-539 CNS) [µM] | TGI (SF-539 CNS) [µM] | GI50 (KM12 colon) [µM] | TGI (KM12 colon) [µM] | GI50 (BT-549 breast) [µM] | TGI (BT-549 breast) [µM] | GI50 (ACHN renal) | TGI (ACHN renal)
Cc1[nH]c2ccccc2c1CO | 18.6 | 46 | 39.3 | > 100 | 25.1 | > 100 | 15.8 | 32.1 | 28.1 | > 100 | 15.1 | 28.4 | 18.8 | 39.9 | 4.84 | 19.4 | 18.4 | 40.3 | 22.8 µM | 88.8 µM
CCOc1ccc(-c2nc3ccc(-c4nc5ccc(N6CCN(C)CC6)cc5[nH]4)cc3[nH]2)cc1 | 0.288 | 1.44 | 0.448 | 1.73 | 0.311 | 2.67 | 0.342 | 1.61 | 0.456 | 1.6 | 0.234 | 1.17 | 0.689 | 2 | 0.999 | 2.15 | 1.16 | 2.46 | 0.631 µM and 1.18 µM | 1.89 µM and 2.7 µM
Cc1ccc(-c2cc(C(=O)Nc3ccc(S(=O)(=O)N4CCCCC4)cc3)[nH]n2)c(O)c1 | > 100 | > 100 | > 100 | > 100 | 22.3 | > 100 | > 100 | > 100 | > 100 | > 100 | > 100 | > 100 | > 100 | > 100 | > 100 | > 100 | > 100 | > 100 | > 100 µM | > 100 µM
Cn1cnc([N+](=O)[O-])c1S(=O)(=O)Oc1ccc(Cl)cc1 | 8.88 | 25.6 | > 100 | > 100 | 1.85 | 4.36 | 13.2 | 30.8 | 16.1 | 39 | 1.69 | 3.29 | 7.11 | 21 | 23 | 91.4 | 13.3 | 28.8 | 1.8 µM | 3.28 µM
Oc1nc(N2CCOCC2)sc1/C=C1\C=Nc2ccccc21 | > 100 | > 100 | > 100 | > 100 | 82 | > 100 | > 100 | > 100 | > 100 | > 100 | > 100 | > 100 | > 100 | > 100 | > 100 | > 100 | > 100 | > 100 | > 100 µM | > 100 µM
COc1cc(CSc2nc3ccc(Cl)cc3c(=O)n2Cc2ccccc2)cc(OC)c1OC | 8.48 | > 100 | 5.46 | > 100 | 0.59 | 27.6 | 5.2 | > 100 | 2.88 | 18.2 | 2.65 | > 100 | 2.57 | 9.34 | 2.9 | > 100 | 6.19 | 90.6 | 4.23 µM | 34.2 µM
ClCc1ccccc1Cn1cnc2nc(Cl)nc(Cl)c21 | 2.21 | 7.14 | 1.14 | 2.51 | 0.64 | 5.66 | 1.17 | 2.56 | 2.35 | 4.4 | 0.266 | 0.682 | 0.639 | 1.29 | 5.93 | 24.2 | 1.34 | 3.08 | 0.209 µM | 0.609 µM
COC(=O)c1c2c(c(C)[n+]([O-])c1C)C(=O)C(NCc1ccccc1)=CC2=O | 2.03 | 6.09 | 3.25 | 11.2 | 3 | 31.4 | 2.13 | 5.48 | 3.1 | 17.9 | 3.12 | 10.6 | 2.29 | 5.3 | 2.4 | 9.6 | 4.19 | 16 | 2.73 µM | 10.1 µM
OCc1ccc(-c2nc(-c3ccc4c(c3)OCO4)c(-c3ccccn3)[nH]2)cc1 | > 25 | > 25 | > 25 | > 25 | > 25 | > 25 | > 25 | > 25 | > 25 | > 25 | > 25 | > 25 | > 25 | > 25 | > 25 | > 25 | > 25 | > 25 | > 25 µM | > 25 µM
Oc1ccc(N=Nc2ccc(Br)cc2)c(O)c1 | 3.22 | 26.9 | 4 | 68.8 | 0.337 | 2.54 | 6.54 | 50 | 3.9 | 19.5 | 3.64 | > 100 | 1.93 | 5.14 | 3.31 | 39.8 | 2.67 | 8.3 | 5.44 µM | 37.5 µM
